From patent US9365605B2, “Cyclic nucleotide analogs” (priority 2010, dated 2016) come the findings set out here.

This test relates to Huh-7 cells containing the self-replicating, subgenomic HCV replicon with a stable luciferase (LUC) reporter. Kind of test: HCV replicon assay (luciferase reporter, Bright-Glo). Format: cell-based. As to the method:
Huh-7 cells containing the self-replicating, subgenomic HCV replicon with a stable luciferase (LUC) reporter were cultured in Dulbecco's modified Eagle's medium (DMEM) containing 2 mM L-glutamine and supplemented with 10% heat-inactivated fetal bovine serum (FBS), 1% penicillin-streptomyocin, 1% nonessential amino acids, and 0.5 mg/mL G418.
Determination of 50% inhibitory concentration (EC50) of compounds in HCV replicon cells were performed by the following procedure. On the first day, 5,000 HCV replicon cells were plated per well in a 96-well plate. On the following day, test compounds were solubilized in 100% DMSO to 100× the desired final testing concentration. Each compound was then serially diluted (1:3) up to 9 different concentrations. Compounds in 100% DMSO are reduced to 10% DMSO by diluting 1:10 in cell culture media. The compounds were diluted to 10% DMSO with cell culture media, which were used to dose the HCV replicon cells in 96-well format. The final DMSO concentration was 1%. The HCV replicon cells were incubated at 37° C. for 72 hours. At 72 hours, cells were processed when the cells are still subconfluent. Compounds that reduce the LUC signal are determined by Bright-Glo Luciferase Assay (Promega, Madison, Wis.). % Inhibition was determined for each compound concentration in relation to the control cells (untreated HCV replicon) to calculate the EC50.
Compounds of Formula (I) are active in the replicon assay. The antiviral activity of exemplary compounds is shown in Table 5, where ‘A’ indicates an EC50<1 μM, ‘B’ indicates an EC50≧1 μM and <10 μM, and ‘C’ indicates an EC50≧10 μM and <100 μM.
For orientation: In antiviral work, replicon cells carry a viral genome segment that copies itself.

Like-named read-outs stand apart in the source and are kept apart here.

`COc1nc(N)nc2c1ncn2[C@@H]1O[C@@H]2COP(=S)(OC)O[C@H]2[C@@]1(C)O` (some centres unmarked) [Compound 1a, (Rp/Sp) 2′-C-methyl-6-O-methyl-guanosine-3′,5′-cyclic-O-methyl phosphorothioate]: the EC50 – broadly, the concentration needed to bring the measured effect to its halfway point – (Hepatitis C virus, Huh-7, 72 h) was under 1 µM.
For `COP1(=O)O[C@H]2[C@@H](O)[C@H](n3cnc4c(N)ncnc43)O[C@@H]2[C@H](C)O1` (some centres unmarked) [Compound 8a], the concentration for a half-maximal effect (EC50) (Hepatitis C virus, HCV replicon cells (Huh-7), 72 hours incubation, LUC signal, read-out: EC50) lay in the range of 10 to 100 µM.
In turn, `COP1(=S)OC[C@H]2O[C@@H](n3ccc(=O)[nH]c3=O)[C@](C)(O)[C@@H]2O1` (some centres unmarked) [Compound 10a, 1-(7-Hydroxy-2-methoxy-7-methyl-2-thioxo-tetrahydro-2l5-furo[3,2-d][1,3,2]dioxaphosphinin-6-yl)-1H-pyrimidine-2,4-dione] returned an EC50 (Hepatitis C virus, Huh-7, 72 h) of 10 to 100 µM.
Still for that read-out and setting: next, `CC(C)OP1(=S)OC[C@H]2O[C@@H](n3ccc(=O)[nH]c3=O)[C@](C)(O)[C@@H]2O1` (some centres unmarked) [Compound 11a, 1-(7-Hydroxy-2-isopropoxy-7-methyl-2-thioxo-tetrahydro-2l5-furo[3,2-d][1,3,2]dioxaphosphinin-6-yl)-1H-pyrimidine-2,4-dione]: 1 to 10 µM.
Consider `COc1nc(N)nc2c1ncn2[C@@H]1O[C@@H]2COP(=O)(SCOC(=O)C(C)(C)C)O[C@H]2[C@@]1(C)O` (some centres unmarked) [Compound 12a, 2′-C,O^6-Dimethylguanosine 3′,5′-cyclic O-pivaloyloxymethyl phosphorothioate], for which the concentration giving a half-maximal response (EC50) (HCV replicon cells (Huh-7), 72 hours incubation, LUC signal, read-out: EC50) is under 1 µM.
